According to US11992467B2, “Promotion of lymphatic function” (Universitaet Basel, priority 2014, dated 2024):

How the values were obtained:
[1] = tested on: LEC; test: Sprouting assay (LEC-coated microcarriers in collagen); type: cell-based, human; conditions: 24 hours
Method: To investigate cell sprouting, cytodex microcarriers were coated with LECs (Schulz et al. (2012) Phenotype-based high-content chemical library screening identifies statins as inhibitors of in vivo lymphangiogenesis. Proc Natl Acad Sci USA 109, E2665-2674). Then, the microcarriers were embedded in a collagen solution and media containing 0.1% DMSO, 20 ng/ml VEGF-A, or different concentrations of the IG extract, its subfractions or iridals were added for 24 hours. The induced sprouts were imaged at 4× magnification (Molecular Devices ImageXpress Micro HCS microscope MD2, Photometrics CoolSNAP HQ camera, Photometrics, Tucson, AZ, USA). Image analysis was performed using ImageJ64 and the number of sprouts per microcarrier was counted and plotted. Three replicates per condition were performed.

[2] = tested on: guinea pig mesenteric lymphatic vessels; test: Ex vivo lymphatic contractility assay
From the text: Guinea pigs (7-15 days of age) were killed by decapitation during deep anaesthesia induced by inhalation of isoflurane. The small intestine with its attached mesentery was rapidly dissected and placed in a physiological saline solution (PSS) of the following composition (mM): CaCl2, 2.5; KCl, 5; MgCl2, 2; NaCl, 120; NaHCO3, 25; NaH2PO4, 1; glucose, 11. The pH was maintained at 7.4 by constant bubbling with 95% O2/5% CO2. […]
The organ bath was then mounted on the stage of an inverted microscope and continuously superfused at a flow rate of 3 ml/min with PSS heated to 36° C. […] A custom-written MatLab program detected vessel diameter changes on the video image and recorded them as a function of time, allowing measurement of frequency and amplitude of contractions. Decreases in vessel diameter greater than 50% of the diastolic diameter were counted as contractions. Preparations were allowed a 30 min equilibration period prior to drug application during which pumping was assessed. […] A 5 min control period of contractile activity was recorded prior to a 1 to 5 min application of iripallidal and effects on vessel contraction frequency were assessed during the ten subsequent minutes.

[3] = tested on: cytochrome P450 1A isoenzyme; conditions: cited from earlier work
[4] = tested on: K562; conditions: cited from earlier work
[5] = tested on: Plasmodium; conditions: cited from earlier work
[6] = tested on: fungi; conditions: cited from earlier work
[7] = tested on: A2780; conditions: cited from earlier work
[8] = tested on: lymphangiogenesis; conditions: experimental mouse lymphedema models; cited from earlier work

Irigermanone
Minimal effective concentration in sprouting assay [1]: 10 µM

CC1=CC[C@H](C)C(C)(C)[C@@H]1/C=C/C(C)=C/CC[C@@]1(CO)[C@H](CCCO)/C(=C(/C)C=O)CC[C@]1(C)O [Iripallidal]
vessels with small, but significant increase in contraction frequency ([2]; 10 μM): 5 out of 6 | vessels with small, but significant increase in contraction frequency ([2]; 30 μM (data not shown)): 4 out of 4 | Minimal effective concentration in sprouting assay [1]: 0.03 µM

Cis isomer of α-dehydroirigermanal
Minimal effective concentration in sprouting assay [1]: 0.01 µM

COc1cc(-c2coc3cc(O)c(OC)c(O)c3c2=O)cc(O)c1OC [irigenin]
inhibition of cytochrome P450 1A isoenzyme [3]: potent inhibitors

O=c1c(-c2ccc(O)cc2)coc2cc3c(c(O)c12)OCO3 [irilone]
inhibition of cytochrome P450 1A isoenzyme [3]: potent inhibitors

C=C1CC[C@H](C)C(C)(C)[C@@H]1/C=C/C(C)=C/CC[C@@]1(CO)[C@H](CCCO)/C(=C(/C)C=O)CC[C@]1(C)O [Iriflorental]
Minimal effective concentration in sprouting assay [1]: 0.03 µM

Irisgermanical C
Minimal effective concentration in sprouting assay [1]: 1 µM

CC(C)=CCC/C(C)=C/CC/C(C)=C/CC[C@@]1(C)[C@H](CCCO)/C(=C(/C)C=O)CC[C@]1(C)O [Iridal]
activity on human tumor cell line [4]: interesting activity on two human tumor cell lines | antiplasmodial activity [5]: antiplasmodial activity | antifungal activity [6]: no antifungal activity | activity on human tumor cell line [7]: interesting activity on two human tumor cell lines

CC(C)=CCC/C(C)=C/CC(O)/C(C)=C/CC[C@@]1(C)[C@H](CCCO)/C(=C(\C)C=O)CC[C@]1(C)O (some centres unmarked) [Iridobelamal A]
Minimal effective concentration in sprouting assay [1]: 3 µM

C=C1CC[C@H](C)C(C)(C)[C@@H]1CC/C(C)=C/CC[C@@]1(C)[C@H](CCCO)/C(=C(/C)C=O)CC[C@]1(C)O [γ-irigermanal]
Minimal effective concentration in sprouting assay [1]: 0.01 µM

CC1=C(/C=C/C(C)=C\C=C\C(C)=C\C(=O)O)C(C)(C)CCC1 [9-cis retinoic acid]
lymphangiogenesis [8]: promote lymphangiogenesis

iriflogenin
inhibition of cytochrome P450 1A isoenzyme [3]: potent inhibitors
